Earlier results in patent publication US20230181675A1, “NOVEL FORMUATIONS” (ARECOR LIMITED, priority 2020, published 2023).

conditions: at 25° C.

**Q.** With `O=C(O)CN(CCN(CC(=O)O)CC(=O)O)CC(=O)O` [EDTA, ethylenediaminetetraacetate] as the compound, how does the “logK metal binding stability constant with respect to zinc ion binding” value (from here on “logK metal binding stability constant”) read?
**A.** 14.5

**Q.** Which “logK metal binding stability constant” value does the source give for `O=C(O)CN(CCOCCOCCN(CC(=O)O)CC(=O)O)CC(=O)O` [EGTA, ethyleneglycoltetraacetate] here?
**A.** 12.6

**Q.** Which “logK metal binding stability constant” value does the source give for `O=C(O)CC(O)(CC(=O)O)C(=O)O` [Citrate] here?
**A.** 4.93
